In US8574563B2 (Bristol-Myers Squibb Company, priority 2006, dated 2013):
Read-outs that look alike come from different tables or passages of the source.

Test system: HCV 1b-377-neo replicon cells
Test: HCV replicon assay, HCV 1b-377-neo replicon cells (1b FRET)
Format: cell-based, Hepatitis C virus genotype 1b
Conditions: HCV 1b-377-neo replicon cells, HCV 1b genotype, read-out: EC50 range against HCV 1b (Table 2, Range)
Summary of the method: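 FRET-based replicon assay in HCV 1b-377-neo cells, including a comparison line carrying the NS5A Y2065H mutation that confers resistance to a reference compound.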

SMILES | EC50 (Hepatitis C virus) [nM] | EC50 [nM]
COC(=O)N[C@@H](Cc1cn(Cc2ccccc2)cn1)C(=O)N1CCC[C@H]1c1ncc(-c2ccc(-c3ccc(-c4cnc([C@@H]5CCCN5C(=O)[C@@H](NC(=O)OC)[C@@H](C)OC)[nH]4)cc3)cc2)[nH]1 [cj-75, methyl ((1S)-1-((1-benzyl-1H-imidazol-4-yl)methyl)-2-((2S)-2-(5-(4′-(2-((2S)-1-((2S,3R)-3-methoxy-2-((methoxycarbonyl)amino)butanoyl)-2-pyrrolidinyl)-1H-imidazol-5-yl)-4-biphenylyl)-1H-irnidazol-2-yl)-1-pyrrolidinyl)-2-oxoethyl)carbamate] | 0.001 to 0.999 | –
CCCc1[nH]c([C@@H]2CCCN2C(=O)[C@@H](NC(=O)OC)C(C)C)nc1-c1ccc(-c2ccc(-c3cnc([C@@H]4CCCN4C(=O)[C@@H](NC(=O)OC)C(C)C)[nH]3)cc2)cc1 [Example J14c.2, methyl ((1S)-1-(((2S)-2-(4-(4′-(2-((2S)-1-((2S)-2-((methoxycarbonyl)amino)-3-methylbutanoyl)-2-pyrrolidinyl)-1H-imidazol-4-yl)-4-biphenylyl)-5-propyl-1H-imidazol-2-yl)-1-pyrrolidinyl)carbonyl)-2-methylpropyl)carbamate] | 0.001 to 0.999 | –
CC(C)[C@H](Nc1ncccn1)C(=O)N1[C@@H]2C[C@@H]2C[C@H]1c1ncc(-c2ccc(-c3ccc(-c4cnc([C@@H]5C[C@H]6C[C@H]6N5C(=O)[C@@H](Nc5ncccn5)C(C)C)[nH]4)cc3)cc2)[nH]1 [Example M144, N,N′-(4,4′-biphenyldiylbis(1H-imidazole-4,2-diyl(1R,3S,5R)-2-azabicyclo[3.1.0]hexane-3,2-diyl((2S)-3-methyl-1-oxo-1,2-butanediyl)))di(2-pyrimidinamine)] | 0.001 to 0.999 | –
CN(C)[C@@H](C(=O)N1CCC[C@H]1c1ncc(-c2ccc(-c3ccc(-c4cnc([C@@H]5CCCN5C(=O)Cc5noc6ccccc56)[nH]4)cc3)cc2)[nH]1)c1ccccc1 [Example 94-55, (1R)-2-((2S)-2-(5-(4′-(2-((2S)-1-(1,2-benzisoxazol-3-ylacetyl)-2-pyrrolidinyl)-1H-imidazol-5-yl)-4-biphenylyl)-1H-imidazol-2-yl)-1-pyrrolidinyl)-N,N-dimethyl-2-oxo-1-phenylethanamine] | 0.001 to 0.999 | –
Cc1cc(CC(=O)N2CCC[C@H]2c2ncc(-c3ccc(-c4ccc(-c5cnc([C@@H]6CCCN6C(=O)[C@@H](c6ccccc6)N(C)C)[nH]5)cc4)cc3)[nH]2)n[nH]1 [Example 94-19, (1R)-N,N-dimethyl-2-((2S)-2-(5-(4′-(2-((2S)-1-((5-methyl-1H-pyrazol-3-yl)acetyl)-2-pyrrolidinyl)-1H-imidazol-5-yl)-4-biphenylyl)-1H-imidazol-2-yl)-1-pyrrolidinyl)-2-oxo-1-phenylethanamine] | 0.001 to 0.999 | –
CCCN(CCC)[C@@H](C)C(=O)N1CCC[C@H]1c1ncc(-c2ccc(-c3ccc(-c4cnc([C@@H]5CCCN5C(=O)[C@@H](c5ccccc5)N(CC)CC)[nH]4)cc3)cc2)[nH]1 [Example M43, N-((1S)-2-((2S)-2-(5-(4′-(2-((2S)-1-((2R)-2-(diethylamino)-2-phenylacetyl)-2-pyrrolidinyl)-1H-imidazol-5-yl)-4-biphenylyl)-1H-imidazol-2-yl)-1-pyrrolidinyl)-1-methyl-2-oxoethyl)-N-propyl-1-propanamine] | 1 to 99 | –
COC(=O)N[C@H](C(=O)N1CCC[C@H]1c1nc(-c2ccc(-c3ccc(-c4c[nH]c([C@@H]5CCCN5C(=O)[C@@H](NC(=O)OC5CCOCC5)C(C)C)n4)cc3)cc2)c[nH]1)C(C)C [Example F55, tetrahydro-2H-pyran-4-yl ((1S)-1-(((2S)-2-(4-(4′-(2-((2S)-1-(N-(methoxycarbonyl)-L-valyl)-2-pyrrolidinyl)-1H-imidazol-4-yl)-4-biphenylyl)-1H-imidazol-2-yl)-1-pyrrolidinyl)carbonyl)-2-methylpropyl)carbamate] | 0.001 to 0.999 | –
COC(=O)N[C@@H](CC(=O)N1CCC[C@H]1c1ncc(-c2ccc(-c3ccc(-c4cnc([C@@H]5CCCN5C(=O)C[C@@H](Cc5ccccc5)NC(=O)OC)[nH]4)cc3)cc2)[nH]1)Cc1ccccc1 [cj-143, dimethyl (4,4′-biphenyldiylbis(1H-imidazole-5,2-diyl(2S)-2,1-pyrrolidinediyl((2R)-4-oxo-1-phenyl-4,2-butanediyl)))biscarbamate] | 1000 to 10000 | –
CN(C)[C@@H](C(=O)N1CCC[C@H]1c1ncc(-c2ccc(-c3ccc(-c4cnc([C@@H]5CCCN5C(=O)c5ccccc5F)[nH]4)cc3)cc2)[nH]1)c1ccccc1 [Example 94-38, (1R)-2-((2S)-2-(5-(4′-(2-((2S)-1-(2-fluorobenzoyl)-2-pyrrolidinyl)-1H-imidazol-5-yl)-4-biphenylyl)-1H-imidazol-2-yl)-1-pyrrolidinyl)-N,N-dimethyl-2-oxo-1-phenylethanamine] | 0.001 to 0.999 | –
COC(=O)N[C@H](C(=O)N1CCC[C@H]1c1ncc(-c2ccc(-c3ccc(-c4cnc([C@@H]5CC(F)(F)CN5C(=O)[C@@H](NC(=O)OC)C(C)C)[nH]4)cc3)cc2)[nH]1)C(C)C [OL-12, methyl ((1S)-1-(((2S)-2-(4-(4′-(2-((2S)-4,4-difluoro-1-((2S)-2-((methoxycarbonyl)amino)-3-methylbutanoyl)-2-pyrrolidinyl)-1H-imidazol-4-yl)-4-biphenylyl)-1H-imidazol-2-yl)-1-pyrrolidinyl)carbonyl)-2-methylpropyl)carbamate] | 0.001 to 0.999 | –
CNC(=O)c1nc([C@@H]2CCCN2C(=O)[C@H](C)NC(=O)OC)[nH]c1-c1ccc(-c2ccc(-c3cnc([C@@H]4CCCN4C(=O)[C@@H](C)NC(=O)OC)[nH]3)cc2)cc1 [Example J28, methyl ((1S)-2-((2S)-2-(5-(4′-(2-((2S)-1-(N-(methoxycarbonyl)-L-alanyl)-2-pyrrolidinyl)-4-(methylcarbamoyl)-1H-imidazol-5-yl)-4-biphenylyl)-1H-imidazol-2-yl)-l-pyrrolidinyl)-l-methyl-2-oxoethyl)carbamate] | 1 to 99 | –
COC(=O)N[C@H](C(=O)N1CC[C@@H](O)[C@H]1c1ncc(-c2ccc(-c3ccc(-c4cnc([C@@H]5CCCN5C(=O)[C@@H](NC(=O)OC)C(C)C)[nH]4)cc3)cc2)[nH]1)C(C)C [OL-21, methyl ((1S)-1-(((2R)-3-hydroxy-2-(4-(4′-(2-((2S)-1-((2S)-2-((methoxycarbonyl)amino)-3-methylbutanoyl)-2-pyrrolidinyl)-1H-imidazol-4-yl)-4-biphenylyl)-1H-imidazol-2-yl)-1-pyrrolidinyl)carbonyl)-2-methylpropyl)carbamate] | 0.001 to 0.999 | –
CCN(CC)[C@@H](C(=O)N1CCC[C@H]1c1ncc(-c2ccc(-c3ccc(-c4cnc([C@@H]5CCCN5C(=O)C5(NC(=O)OC)CC5)[nH]4)cc3)cc2)[nH]1)c1ccccc1 [Example M33, methyl (1-(((2S)-2-(5-(4′-(2-((2S)-1-((2R)-2-(diethylamino)-2-phenylacetyl)-2-pyrrolidinyl)-1H-imidazol-5-yl)-4-biphenylyl)-1H-imidazol-2-yl)-1-pyrrolidinyl)carbonyl)cyclopropyl) carbamate] | – | 1 to 99
COC(=O)N[C@@H](C(=O)N1CCC[C@H]1c1ncc(-c2ccc(-c3ccc(-c4cnc([C@@H]5CCCN5C(=O)c5ccccc5F)[nH]4)cc3)cc2)[nH]1)c1ccccc1 [Example 84-40, methyl ((1R)-2-((2S)-2-(5-(4′-(2-((2S)-1-(2-fluorobenzoyl)-2-pyrrolidinyl)-1H-imidazol-5-yl)-4-biphenylyl)-1H-imidazol-2-yl)-1-pyrrolidinyl)-2-oxo-1-phenylethyl)carbamate] | 0.001 to 0.999 | –
CCN(CC)[C@@H](C(=O)N1CCC[C@H]1c1ncc(-c2ccc(-c3ccc(-c4cnc([C@@H]5CCCN5C(=O)c5cccnc5)[nH]4)cc3)cc2)[nH]1)c1ccccc1 [Example M38, (1R)-N,N-diethyl-2-oxo-1-phenyl-2-((2S)-2-(5-(4′-(2-((2S)-1-(3-pyridinylcarbonyl)-2-pyrrolidinyl)-1H-imidazol-5-yl)-4-biphenylyl)-1H-imidazol-2-yl)-1-pyrrolidinyl)ethanamine] | 1 to 99 | –
COC(=O)N[C@@H](CC(=O)N1CCC[C@H]1c1ncc(-c2ccc(-c3ccc(-c4cnc([C@@H]5CCCN5C(=O)C[C@H](NC(=O)OC)c5ccccc5)[nH]4)cc3)cc2)[nH]1)c1ccccc1 [cj-129, methyl ((1S)-3-((2S)-2-(5-(4′-(2-(1-((3S)-3-((methoxycarbonyl)amino)-3-phenylpropanoyl)-2-pyrrolidinyl)-1H-imidazol-5-yl)-4-biphenylyl)-1H-imidazol-2-yl)-1-pyrrolidinyl)-3-oxo-1-phenylpropyl)carbamate] | 0.001 to 0.999 | –
COC(=O)N[C@@H](C(=O)N1CCC[C@H]1c1ncc(-c2ccc(-c3ccc(-c4cnc([C@@H]5CCCN5C(=O)Cc5ccc(OC)cc5)[nH]4)cc3)cc2)[nH]1)c1ccccc1 [Example 84-63, methyl ((1R)-2-((2S)-2-(5-(4′-(2-((2S)-1-((4-methoxyphenyl)acetyl)-2-pyrrolidinyl)-1H-imidazol-5-yl)-4-biphenylyl)-1H-imidazol-2-yl)-1-pyrrolidinyl)-2-oxo-1-phenylethyl)carbamate] | 0.001 to 0.999 | –
COC(=O)N[C@H](C(=O)N1CCC[C@@H]1c1ncc(-c2ccc(-c3ccc(-c4cnc([C@@H]5CCCN5C(=O)[C@@H](NC(=O)OC)C(C)C)[nH]4)cc3)cc2)[nH]1)C(C)C [Example M28-2, methyl ((1S)-1-(((2S)-2-(5-(4′-(2-((2R)-1-((2S)-2-((methoxycarbonyl)amino)-3-methylbutanoyl)-2-pyrrolidinyl)-1H-imidazol-5-yl)-4-biphenylyl)-1H-imidazol-2-yl)-1-pyrrolidinyl)carbonyl)-2-methylpropyl)carbamate] | 100 to 999 | –
CC(=O)CCC(=O)N1CCC[C@H]1c1ncc(-c2ccc(-c3ccc(-c4cnc([C@@H]5CCCN5C(=O)[C@@H](c5ccccc5)N5CCCCC5)[nH]4)cc3)cc2)[nH]1 [Example 107-5, 5-oxo-5-((2S)-2-(5-(4′-(2-((2S)-1-((2R)-2-phenyl-2-(1-piperidinyl)acetyl)-2-pyrrolidinyl)-1H-imidazol-5-yl)-4-biphenylyl)-1H-imidazol-2-yl)-1-pyrrolidinyl)-2-pentanone] | 0.001 to 0.999 | –
